How the values were obtained:
[1] = system: bleomycin-induced pulmonary fibrosis; assay: Bleomycin (BLM)-induced pulmonary fibrosis in mice; assay type: in vivo, C57BL/6 mice; details: for antifibrotic effect in six-week course of BLM-induced fibrosis: Example 3, 5 mg/kg/day over weeks 4-6, FIG. 4
Description: C57BL/6 mice received subcutaneous implants of an ALZET mini-osmotic pump (Durect Corp., California) that released BLM continuously (Example 1, […]; Example 2, 120 U/kg/mouse/day) for seven days (Day 1-Day 7), to induce lung fibrosis (Lab Invest. 50:487-488, 1984; Am. J. Resp. Cell Mol. Biol. 45:489-497, 2011). Bleomycin induces epithelial injury, causing increased pulmonary inflammation from Days 1-21, peaking at about Day 10 before subsiding. Fibrosis begins at about Day 8 and gradually increases until Day 28.
BLM mice treated with test compound received a second subcutaneous ALZET mini-osmotic pump (Durect Corp., California) that released Compound A continuously. Compound A, 4-(((6S,9S,9aS)-1-(benzylcarbamoyl)-2,9-dimethyl-4,7-dioxo-8-(quinolin-8-ylmethyl)octahydro-1H-pyrazino[2,1-c][1,2,4]triazin-6-yl)methyl)phenyl dihydrogen phosphate.
Ashcroft score (J. Clin. Pathol. 41:467-470, 1988) was calculated from tissue sections of right lung stained by H&E. Left lung homogenates were analyzed for soluble collagen content using SIRCOL Collagen Assay kit (Biocolor Ltd., Carrickfergus, UK).
In Example 1, Compound A was administered 5 mg/kg/day over days 15-28.
In Example 2, Compound A was administered 1 mg/kg/day over Days 1-28 (“whole”), Days 1-14 (“early”) or Days 15-28 (“late”). […] Bleo, bleomycin treatment alone; Bleo+Cmpd A whole, bleomycin plus Compound A administered throughout 4 week period; Bleo+early 2w, bleomycin plus Compound A administered over weeks 1-2; Bleo+late 2w, bleomycin plus Compound A administered over weeks 3-4.
In Example 3, a six-week rather than four-week course of BLM-induced fibrosis was studied. In this example, either Compound A (5 mg/kg/day) or ICG-001 (5 mg/kg/day), another β-catenin inhibitor, was administered to BLM-treated mice over weeks 4-6.

[2] = system: lung epithelial cell line LA-4; assay: TGF-β-induced epithelial-to-mesenchymal transition (EMT) in LA-4 cells; assay type: cell-based, murine
Description: In Example 4, the murine lung epithelial cell line, LA-4, available from the American Type Culture Collection (ATCC; Manassas, Va.), was treated with TGF-β (5 ng/ml) to induce epithelial-to-mesenchymal transition (EMT), a marker for fibrosis (J Clin Invest. 119:1420-1428, 2009). TGF-β treated cells were treated with no or with increasing concentrations (0.01 μM, 0.05 μM, 0.1 μM, or 0.5 μM) of Compound C. Compound C, (6S,9S,9aS)—N-benzyl-6-(4-hydroxybenzyl)-2,9-dimethyl-4,7-dioxo-8-(quinolin-8-ylmethyl)octahydro-1H-pyrazino[2,1-c][1,2,4]triazine-1-carboxamide.

[3] = system: bleomycin-induced lung fibrosis; details: cited from earlier work
[4] = biological target: β-catenin/CBP interaction (Homo sapiens, UniProt Q92793); details: cited from earlier work
Chain of β-catenin/CBP interaction (Q92793 whole entry): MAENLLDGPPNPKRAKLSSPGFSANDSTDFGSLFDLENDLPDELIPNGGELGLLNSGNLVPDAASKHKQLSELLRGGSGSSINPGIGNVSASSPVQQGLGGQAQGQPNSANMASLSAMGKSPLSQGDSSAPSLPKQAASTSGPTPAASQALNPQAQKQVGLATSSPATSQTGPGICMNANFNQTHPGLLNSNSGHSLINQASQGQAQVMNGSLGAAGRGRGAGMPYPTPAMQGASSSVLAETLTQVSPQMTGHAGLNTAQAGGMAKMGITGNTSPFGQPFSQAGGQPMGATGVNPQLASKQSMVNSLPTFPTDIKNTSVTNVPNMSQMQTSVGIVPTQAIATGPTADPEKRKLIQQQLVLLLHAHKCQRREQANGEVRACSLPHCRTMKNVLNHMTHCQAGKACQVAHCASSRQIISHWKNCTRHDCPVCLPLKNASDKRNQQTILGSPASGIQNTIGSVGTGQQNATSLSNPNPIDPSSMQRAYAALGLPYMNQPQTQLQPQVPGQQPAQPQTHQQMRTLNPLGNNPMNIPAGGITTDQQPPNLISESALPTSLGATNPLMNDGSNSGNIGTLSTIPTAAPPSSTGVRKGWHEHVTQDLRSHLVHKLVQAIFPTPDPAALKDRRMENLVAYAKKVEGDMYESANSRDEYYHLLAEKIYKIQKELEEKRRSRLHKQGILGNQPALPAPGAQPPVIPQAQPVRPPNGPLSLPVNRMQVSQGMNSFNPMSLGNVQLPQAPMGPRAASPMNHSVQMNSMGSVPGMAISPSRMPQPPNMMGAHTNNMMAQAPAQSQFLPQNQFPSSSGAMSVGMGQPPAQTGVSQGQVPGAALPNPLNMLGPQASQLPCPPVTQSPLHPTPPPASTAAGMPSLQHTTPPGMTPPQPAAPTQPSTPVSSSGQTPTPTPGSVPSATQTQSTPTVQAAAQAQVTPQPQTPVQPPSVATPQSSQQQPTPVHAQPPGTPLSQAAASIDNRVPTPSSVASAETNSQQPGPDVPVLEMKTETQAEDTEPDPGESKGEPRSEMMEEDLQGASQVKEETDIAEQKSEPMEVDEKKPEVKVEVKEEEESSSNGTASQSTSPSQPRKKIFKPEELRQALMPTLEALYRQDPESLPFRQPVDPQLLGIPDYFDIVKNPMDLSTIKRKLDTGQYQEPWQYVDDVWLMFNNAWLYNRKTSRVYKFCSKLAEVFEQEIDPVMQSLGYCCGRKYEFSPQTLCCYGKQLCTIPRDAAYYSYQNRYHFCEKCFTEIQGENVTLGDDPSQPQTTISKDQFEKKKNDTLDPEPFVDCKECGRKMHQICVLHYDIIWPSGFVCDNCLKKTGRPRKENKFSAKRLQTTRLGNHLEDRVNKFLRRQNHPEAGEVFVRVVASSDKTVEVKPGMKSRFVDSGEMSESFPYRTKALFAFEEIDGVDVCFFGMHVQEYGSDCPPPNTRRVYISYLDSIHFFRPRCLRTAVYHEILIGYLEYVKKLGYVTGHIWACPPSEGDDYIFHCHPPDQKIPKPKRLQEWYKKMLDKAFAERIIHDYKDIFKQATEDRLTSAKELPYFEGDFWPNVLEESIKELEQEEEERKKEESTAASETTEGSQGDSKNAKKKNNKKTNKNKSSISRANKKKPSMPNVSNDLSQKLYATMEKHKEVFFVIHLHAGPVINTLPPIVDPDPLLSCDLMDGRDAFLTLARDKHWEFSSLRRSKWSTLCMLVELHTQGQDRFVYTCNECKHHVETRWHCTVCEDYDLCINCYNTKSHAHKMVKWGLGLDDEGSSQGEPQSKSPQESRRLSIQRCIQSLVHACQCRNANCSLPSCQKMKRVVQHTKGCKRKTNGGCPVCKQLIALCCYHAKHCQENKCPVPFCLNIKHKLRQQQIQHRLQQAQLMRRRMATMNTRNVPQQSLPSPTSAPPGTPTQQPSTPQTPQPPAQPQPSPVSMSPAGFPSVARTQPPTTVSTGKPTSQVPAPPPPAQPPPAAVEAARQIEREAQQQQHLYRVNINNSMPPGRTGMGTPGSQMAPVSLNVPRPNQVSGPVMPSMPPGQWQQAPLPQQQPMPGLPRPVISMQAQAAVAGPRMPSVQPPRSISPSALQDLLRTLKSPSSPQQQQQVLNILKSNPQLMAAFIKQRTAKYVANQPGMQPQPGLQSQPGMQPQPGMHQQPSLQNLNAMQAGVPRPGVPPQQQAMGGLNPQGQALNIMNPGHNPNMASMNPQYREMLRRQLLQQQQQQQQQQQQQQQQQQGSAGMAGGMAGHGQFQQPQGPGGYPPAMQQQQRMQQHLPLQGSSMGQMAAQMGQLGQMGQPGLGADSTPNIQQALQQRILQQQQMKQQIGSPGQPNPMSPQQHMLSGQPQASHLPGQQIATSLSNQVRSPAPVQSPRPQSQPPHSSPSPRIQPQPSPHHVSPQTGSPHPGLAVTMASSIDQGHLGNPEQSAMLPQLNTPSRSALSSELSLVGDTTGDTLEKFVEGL

Compound | lung fibrosis by histological examination ([1]; Example 1, 5 mg/kg, days 14-28, FIG. 2C) | lung fibrosis (Ashcroft score) ([1]; Example 1, 5 mg/kg/day s.c. osmotic pump, days 15-28 (days 14-28), FIG. 1A, vs bleomycin alone) | collagen deposition (SIRCOL collagen assay, left lung) ([1]; Example 1, 5 mg/kg/day, days 15-28 (days 14-28), FIG. 1B, vs bleomycin alone) | antifibrotic effect, early (inflammatory) phase treatment ([1]; Example 2, 1 mg/kg/day, Days 1-14 (early), FIG. 3, vs no test compound) | antifibrotic effect, late (fibrotic) phase treatment ([1]; Example 2, 1 mg/kg/day, Days 15-28 (late), FIG. 3) | late phase treatment compared with treatment throughout the entire period ([1]; Example 2, 1 mg/kg/day, Days 15-28 vs Days 1-28 (whole), FIG. 3) | antifibrotic effect in six-week course of BLM-induced fibrosis [1] | α-SMA expression by fluorescent microscopy ([2]; TGF-β 5 ng/ml plus compound 0.01 μM, FIG. 6) | TGF-β-induced alpha smooth muscle actin (α-SMA) formation / EMT ([2]; TGF-β 5 ng/ml, increasing concentrations 0.01, 0.05, 0.1, 0.5 μM, FIG. 5) | bleomycin-induced lung fibrosis ([3]; 5 mg/kg per day, mice) | β-catenin signaling ([3]; 5 mg/kg per day, mice) | fibrosis, administration concurrent with bleomycin ([3]; concurrent administration) | established fibrosis, late administration ([3]; late administration) | survival, late administration ([3]; late administration) | selectivity β-catenin/CBP vs β-catenin/p300 interaction [4]
C[C@H]1[C@H]2N(C(=O)CN(C)N2C(=O)NCc2ccccc2)[C@@H](Cc2ccc(OP(=O)(O)O)cc2)C(=O)N1Cc1cccc2cccnc12 [Compound A, 4-(((6S,9S,9aS)-1-(benzylcarbamoyl)-2,9-dimethyl-4,7-dioxo-8-(quinolin-8-ylmethyl)octahydro-1H-pyrazino[2,1-c][1,2,4]triazin-6-yl)methyl)phenyl dihydrogen phosphate] | reduces lung fibrosis | reduces lung fibrosis | reduced | not significantly beneficial | significantly reduced lung fibrosis | equal to, or even superior to | has an antifibrotic effect |  |  |  |  |  |  |  | 
C[C@H]1[C@H]2N(C(=O)CN(C)N2C(=O)NCc2ccccc2)[C@@H](Cc2ccc(O)cc2)C(=O)N1Cc1cccc2cccnc12 [Compound C, (6S,9S,9aS)—N-benzyl-6-(4-hydroxybenzyl)-2,9-dimethyl-4,7-dioxo-8-(quinolin-8-ylmethyl)octahydro-1H-pyrazino[2,1-c][1,2,4]triazine-1-carboxamide] |  |  |  |  |  |  |  | decreased alpha smooth muscle actin (α-SMA) expression | inhibit TGF-β-induced alpha smooth muscle actin (α-SMA) formation |  |  |  |  |  | 
O=C1[C@H](Cc2ccc(O)cc2)N2C(=O)CCN(C(=O)NCc3ccccc3)[C@H]2CN1Cc1cccc2ccccc12 [ICG-001] |  |  |  |  |  |  | antifibrotic effect, unlike β-catenin inhibitor ICG-001 |  |  | attenuates bleomycin-induced lung fibrosis | significantly inhibits β-catenin signaling | prevents fibrosis | reverse established fibrosis | significantly improve survival | selectively blocks the β-catenin/CBP interaction without interfering with the β-catenin/p300 interaction
